Results taken from patent US20090280984A1, “Method of Inhibiting the Growth of Algae” (ITEQ CORPORATION, priority 2008, published 2009).

System: Microcystis aeruginosa
Assay: Inhibition of algal growth, detection of Chlorophyll-a content by spectrometry (absorbance at 665 nm after ethanol extraction)
Assay type: cell-based
Method: In the following embodiment, three specimens, chitosan, glucosamine, and the combination of both, were used as inhibitors to inhibit algal growth and their inhibition efficiency was tested as well. In this embodiment, one kind of toxic Cyanobacteria, Microcystis aeruginosa, is used for the inhibition test. Since chlorophyll-a content of algae is widely used as an indicator of the abundance of algae in a freshwater body, the chlorophyll-a content of Microcystis aeruginosa in the sample was detected by spectrometry.
First, four 0.5 ml portions of Microcystis aeruginosa solution were obtained and were labeled as sample I, II, III and IV, respectively, and 49.5 ml of Bold's medium was added to each sample. Next, chitosan, glucosamine, and the combination were added to sample II, III and IV, respectively, so that sample II contains 10 ppm chitosan, and sample III contains 10 ppm glucosamine, and sample IV contains 5 ppm chitosan and 5 ppm glucosamine. Sample I without any chitosan and glucosamine added was used as the control. After that, these four samples were cultured for 14 days. During that time, the Chlorophyll-a content of four samples were detected every 7 days according to the procedures mentioned below.
A portion of each sample was obtained and centrifuged at 10000 rpm at 20° C. for 15 mins, and then the supernatant was poured out. Next, four 10 ml portions of 95% (v/v) ethanol were added to sample I to IV and mixed with the residues. Next, the solution of each sample was water-bathed in 60° C. water for 30 mins to extract Chlorophyll-a. When being bathed in the water, the solution of each sample was shaken every ten minutes. After that, the solutions were centrifuged at 5000 G at 20° C. for 15 minutes and the supernatants were kept. Then, the absorbance at 665 nm of […] were detected. Finally, according to the “Standard Methods for the Examination Chlorophyll-a in Water-Ethanol Extraction” issued by National Institute of Environmental Analysis, Taiwan (NIEA E508.00B), the absorbance at 665 nm of samples I to IV were calibrated and the concentration of Chlorophyll-a content of each sample was calculated by the absorbance measured.
Basically, the whole process was the same as mentioned above except the concentration of chitosan and glucosamine in samples, and the Chlorophyll-a content was also detected. The concentration of glucosamine and chitosan contained in each sample and the Chlorophyll-a content detected are show in Table 2.

SMILES: N[C@H]1C(O)O[C@H](CO)[C@@H](O)[C@@H]1O (stereo partly drawn) [III, glucosamine]
- Chlorophyll-a Content (Embodiment I, 0th day, Microcystis aeruginosa in Bold's medium): 6.9 ppb
- Chlorophyll-a Content (Embodiment I, 7th day, control (sample I) 278 ppb): 33 ppb
- Chlorophyll-a Content (Embodiment I, 14th day, control (sample I) 2470 ppb): 554 ppb
- Chlorophyll-a Content (Embodiment II, 7th day, Blank 62 ppb, original content 9.7 ppb): 50 ppb
- Chlorophyll-a Content (Embodiment II, 14th day, Blank 418 ppb, original content 9.7 ppb): 124 ppb
- inhibition of the growth of algae (in words) (Microcystis aeruginosa, chlorophyll-a as indicator): could inhibit the growth of algae
